Assay results as given in ChEMBL document CHEMBL1201862, “PubChem BioAssay data set” (2004).
Calls of active or inactive are those of the source.

Assays:
[1] = cAMP pathway inhibition in counterscreen cell line – TR-FRET cAMP detection, counter-screen for MC4R biased antagonist project, dose response (AID 602305); type: functional, cell-based;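 note: U2OS cells stimulated with forskolin near its EC80 as the cAMP inducer; potency is for inhibition of forskolin-stimulated cAMP signaling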
Melanocortin receptor 4 = Melanocortin receptor 4 (Homo sapiens, UniProt P32245); test: inhibitors of MC4R cAMP signaling – cell-based, TR-FRET, biased antagonists, dose response (AID 602298); type: functional;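 note: antagonist potency against agonist-stimulated cAMP production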
[2] = molecular target: Multidrug resistance protein CDR1 (Candida albicans, UniProt P43071); test: inhibition of Nile Red efflux via Candida CDR1 – S. cerevisiae AD1-8u, singleplex, Cherry Pick1 hits, dose response (AID 588606); type: functional
[3] = molecular target: 72 kDa type IV collagenase (Homo sapiens, UniProt P08253); test: Dose Response validation of uHTS RPN11 inhibitor hits using a MMP-2 Fluorescence assay.; type: functional
[4] = molecular target: 26S proteasome non-ATPase regulatory subunit 14 (Homo sapiens, UniProt O00487); test: inhibition of proteasome subunit RPN11 – biochemical, fluorescence polarization, uHTS hits, confirmation (AID 602368); type: functional
Prothrombin = Prothrombin (Bos taurus, UniProt P00735); test: thrombin protease inhibitors – biochemical, fluorescence polarization, uHTS hits, dose response (AID 602369); type: functional
[5] = molecular target: Vascular endothelial growth factor receptor 3 (Homo sapiens, UniProt P35916); type: functional;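 note: value from a kinome-wide profiling panel, with FLT4 as the panel member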
[6] = molecular target: Insulin-like growth factor 1 receptor (Homo sapiens, UniProt P08069); test: Navigating the Kinome. Panel member name: IGF1R; type: functional
[7] = molecular target: Cyclin-dependent kinase 1 (Homo sapiens, UniProt P06493); type: functional;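 note: Kinome-wide panel profiling, with the target listed as panel member CDC2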
Cyclin-dependent kinase 1, sequence (P06493 whole entry): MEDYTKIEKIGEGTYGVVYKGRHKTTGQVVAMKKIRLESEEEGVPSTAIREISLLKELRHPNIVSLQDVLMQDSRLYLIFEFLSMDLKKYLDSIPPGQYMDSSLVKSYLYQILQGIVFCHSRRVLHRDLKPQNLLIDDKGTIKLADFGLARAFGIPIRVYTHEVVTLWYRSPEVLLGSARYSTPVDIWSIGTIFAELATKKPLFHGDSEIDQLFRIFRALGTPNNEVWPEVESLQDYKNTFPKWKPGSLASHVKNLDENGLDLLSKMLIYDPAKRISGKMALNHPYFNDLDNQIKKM

72 kDa type IV collagenase, sequence (P08253 whole entry): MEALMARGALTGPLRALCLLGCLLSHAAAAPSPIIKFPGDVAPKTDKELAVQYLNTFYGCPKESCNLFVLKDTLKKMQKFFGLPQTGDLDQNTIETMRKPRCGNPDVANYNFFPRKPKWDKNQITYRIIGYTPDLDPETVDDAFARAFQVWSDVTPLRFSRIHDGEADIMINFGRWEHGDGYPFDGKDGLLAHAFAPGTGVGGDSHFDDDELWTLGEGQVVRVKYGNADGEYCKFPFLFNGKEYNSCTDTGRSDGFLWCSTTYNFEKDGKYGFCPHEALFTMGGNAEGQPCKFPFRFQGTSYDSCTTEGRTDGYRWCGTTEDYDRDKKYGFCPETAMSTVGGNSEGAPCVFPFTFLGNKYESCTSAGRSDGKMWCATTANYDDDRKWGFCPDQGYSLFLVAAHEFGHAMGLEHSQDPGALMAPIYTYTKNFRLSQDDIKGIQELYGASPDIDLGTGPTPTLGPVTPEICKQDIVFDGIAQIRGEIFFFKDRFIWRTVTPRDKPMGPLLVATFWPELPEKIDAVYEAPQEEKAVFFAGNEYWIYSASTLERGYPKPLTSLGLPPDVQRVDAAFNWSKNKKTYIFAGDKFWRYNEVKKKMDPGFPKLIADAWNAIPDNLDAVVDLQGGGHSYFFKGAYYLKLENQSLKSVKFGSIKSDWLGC
26S proteasome non-ATPase regulatory subunit 14, sequence (O00487 whole entry): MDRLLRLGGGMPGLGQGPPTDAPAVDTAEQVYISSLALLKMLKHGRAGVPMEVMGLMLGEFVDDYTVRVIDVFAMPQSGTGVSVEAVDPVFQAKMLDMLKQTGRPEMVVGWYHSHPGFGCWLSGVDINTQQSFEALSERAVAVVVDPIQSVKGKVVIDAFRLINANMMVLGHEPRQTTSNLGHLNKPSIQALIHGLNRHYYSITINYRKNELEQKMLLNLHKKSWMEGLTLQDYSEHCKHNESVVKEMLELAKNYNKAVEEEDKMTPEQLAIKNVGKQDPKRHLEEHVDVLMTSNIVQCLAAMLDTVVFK
Insulin-like growth factor 1 receptor, sequence (P08069 31-736 limits assumed): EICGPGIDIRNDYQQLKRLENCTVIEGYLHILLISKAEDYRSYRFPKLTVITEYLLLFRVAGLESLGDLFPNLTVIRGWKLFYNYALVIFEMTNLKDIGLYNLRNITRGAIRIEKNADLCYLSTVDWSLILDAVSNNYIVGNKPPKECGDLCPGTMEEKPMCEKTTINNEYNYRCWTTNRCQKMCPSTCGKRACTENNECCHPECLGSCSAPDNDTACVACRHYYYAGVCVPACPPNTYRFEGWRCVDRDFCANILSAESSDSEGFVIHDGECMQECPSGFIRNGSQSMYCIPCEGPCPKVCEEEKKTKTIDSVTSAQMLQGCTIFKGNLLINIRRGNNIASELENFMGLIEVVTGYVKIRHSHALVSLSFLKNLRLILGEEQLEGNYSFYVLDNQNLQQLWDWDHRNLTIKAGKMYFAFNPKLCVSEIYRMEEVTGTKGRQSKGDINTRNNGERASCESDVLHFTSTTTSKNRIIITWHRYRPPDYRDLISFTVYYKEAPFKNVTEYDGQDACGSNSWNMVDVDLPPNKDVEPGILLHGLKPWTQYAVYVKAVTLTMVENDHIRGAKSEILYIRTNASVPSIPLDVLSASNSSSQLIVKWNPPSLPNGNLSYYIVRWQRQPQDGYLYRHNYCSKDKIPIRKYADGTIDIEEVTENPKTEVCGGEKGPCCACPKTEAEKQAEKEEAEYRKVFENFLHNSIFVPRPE
Insulin-like growth factor 1 receptor, sequence (P08069 741-1367 limits assumed): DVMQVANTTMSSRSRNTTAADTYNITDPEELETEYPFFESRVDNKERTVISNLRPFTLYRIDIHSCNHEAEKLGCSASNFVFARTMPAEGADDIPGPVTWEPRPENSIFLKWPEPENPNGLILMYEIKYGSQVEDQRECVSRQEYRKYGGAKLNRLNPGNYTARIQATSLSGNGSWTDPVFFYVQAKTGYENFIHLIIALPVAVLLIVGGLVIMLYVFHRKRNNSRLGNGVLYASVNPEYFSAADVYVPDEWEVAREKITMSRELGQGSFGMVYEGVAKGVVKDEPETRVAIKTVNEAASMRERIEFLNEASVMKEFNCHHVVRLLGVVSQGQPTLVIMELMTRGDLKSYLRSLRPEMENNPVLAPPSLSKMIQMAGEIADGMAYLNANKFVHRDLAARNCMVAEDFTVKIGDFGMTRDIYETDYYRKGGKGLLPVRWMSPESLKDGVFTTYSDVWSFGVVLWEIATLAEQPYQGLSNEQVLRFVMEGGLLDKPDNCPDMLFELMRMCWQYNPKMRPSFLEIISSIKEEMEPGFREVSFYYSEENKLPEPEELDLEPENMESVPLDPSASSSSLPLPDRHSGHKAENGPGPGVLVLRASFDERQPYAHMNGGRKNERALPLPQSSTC
Multidrug resistance protein CDR1, sequence (P43071 whole entry, looked up): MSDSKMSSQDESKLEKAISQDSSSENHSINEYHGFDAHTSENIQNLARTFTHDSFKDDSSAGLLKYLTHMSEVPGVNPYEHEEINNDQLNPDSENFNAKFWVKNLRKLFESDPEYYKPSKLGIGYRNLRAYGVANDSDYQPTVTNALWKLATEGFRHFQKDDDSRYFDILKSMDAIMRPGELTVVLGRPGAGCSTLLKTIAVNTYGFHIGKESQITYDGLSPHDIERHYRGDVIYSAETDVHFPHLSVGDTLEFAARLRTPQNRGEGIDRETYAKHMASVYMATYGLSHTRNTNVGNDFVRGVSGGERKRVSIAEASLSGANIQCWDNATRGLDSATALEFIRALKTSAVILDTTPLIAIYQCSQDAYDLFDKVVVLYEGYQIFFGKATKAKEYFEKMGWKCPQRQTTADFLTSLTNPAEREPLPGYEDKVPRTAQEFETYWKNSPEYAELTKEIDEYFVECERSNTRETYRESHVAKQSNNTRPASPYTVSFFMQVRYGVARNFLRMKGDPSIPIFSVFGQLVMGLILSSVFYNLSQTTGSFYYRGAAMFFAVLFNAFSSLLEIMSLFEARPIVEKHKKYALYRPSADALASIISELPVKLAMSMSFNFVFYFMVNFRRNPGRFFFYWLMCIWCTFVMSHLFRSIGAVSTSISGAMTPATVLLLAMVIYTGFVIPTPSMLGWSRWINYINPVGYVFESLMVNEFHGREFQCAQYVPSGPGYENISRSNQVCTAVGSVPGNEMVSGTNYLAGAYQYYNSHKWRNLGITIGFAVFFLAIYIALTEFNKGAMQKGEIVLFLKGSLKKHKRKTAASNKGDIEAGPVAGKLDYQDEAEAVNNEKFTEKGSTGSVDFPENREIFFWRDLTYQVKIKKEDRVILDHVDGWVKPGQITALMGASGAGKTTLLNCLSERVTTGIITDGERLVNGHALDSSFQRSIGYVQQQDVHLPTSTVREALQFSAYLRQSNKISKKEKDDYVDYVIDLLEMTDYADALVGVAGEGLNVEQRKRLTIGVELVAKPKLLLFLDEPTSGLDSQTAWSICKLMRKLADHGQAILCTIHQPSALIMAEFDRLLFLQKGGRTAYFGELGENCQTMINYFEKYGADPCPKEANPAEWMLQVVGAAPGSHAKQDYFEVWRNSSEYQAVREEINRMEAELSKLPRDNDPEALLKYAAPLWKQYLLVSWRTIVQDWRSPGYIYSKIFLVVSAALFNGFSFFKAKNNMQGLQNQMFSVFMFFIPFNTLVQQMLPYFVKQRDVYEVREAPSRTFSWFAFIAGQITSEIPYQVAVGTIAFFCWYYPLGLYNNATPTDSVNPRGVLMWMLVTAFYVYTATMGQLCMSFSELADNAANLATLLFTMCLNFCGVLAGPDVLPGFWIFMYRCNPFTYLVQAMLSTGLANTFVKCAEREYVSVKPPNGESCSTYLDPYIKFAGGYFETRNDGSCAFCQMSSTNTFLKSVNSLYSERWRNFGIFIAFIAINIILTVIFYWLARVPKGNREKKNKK
Melanocortin receptor 4, sequence (P32245 whole entry): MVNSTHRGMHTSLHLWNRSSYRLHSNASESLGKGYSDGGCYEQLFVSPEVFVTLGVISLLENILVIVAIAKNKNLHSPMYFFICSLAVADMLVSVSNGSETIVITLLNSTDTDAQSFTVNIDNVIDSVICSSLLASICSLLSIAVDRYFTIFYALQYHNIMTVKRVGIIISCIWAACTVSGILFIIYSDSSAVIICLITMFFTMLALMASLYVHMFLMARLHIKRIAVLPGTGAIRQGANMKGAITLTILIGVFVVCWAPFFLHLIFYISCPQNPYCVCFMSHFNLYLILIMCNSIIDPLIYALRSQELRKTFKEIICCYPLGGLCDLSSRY

Compound | IC50 [3] | IC50 [4] | IC50 (Prothrombin) | other results
CC(C)(C)C(=O)COC(=O)CNC(=O)c1ccc(Oc2ccccc2)cc1 |  |  |  | IC50 [1]: > 64.6 µM (inactive); IC50 (Melanocortin receptor 4): > 64.6 µM (inactive)
O=C(Nc1ccnc(-c2cccnc2)n1)c1cccc(Cl)c1Cl |  |  |  | EC50 [2]: 0.117 µM (active)
Cc1cc(C)c(C=C2C(=O)Nc3ccccc32)[nH]1 |  |  |  | Ki [5]: 0.316 µM (active); Ki [6]: > 1 µM (inactive); Ki [7]: > 7.94 µM (inactive)

Further lines, with some results ahead:

IC50 [3] | IC50 [4] | IC50 (Prothrombin) | Compound | other results
> 100 µM (inactive) | 19.7 µM (active) | 25.7 µM (active) | Cc1cc(C(F)(F)F)nc(SCCN2CCOCC2)c1C#N | 
45 µM (active) | 24.8 µM (active) | 27.6 µM (active) | CSc1nsc(/C=C/Nc2ccc(C(=O)O)cc2)c1C#N | 
